{"source": "patent US20140113931A1", "about": "“SUBSTITUTED PICOLINAMIDE KINASE INHIBITORS” (Portola Pharmaceuticals, Inc., priority 2012, published 2014)"}
{"target": "T1, full length active recombinant SYK enzyme (Homo sapiens, UniProt P43405)", "T1 construct": "full length active recombinant SYK enzyme (Millipore, CA); purchased Millipore, CA", "test": "Inhibition of Syk tyrosine phosphorylation activity (LANCE TR-FRET kinase assay)", "assay_type": "biochemical", "conditions": "1 nM active SYK enzyme, 550 nM SYK-substrate, 100 μM ATP, 1 hour at room temperature", "procedure": "The in vitro and in vivo human Syk activities of the inventive compounds can be determined by various procedures known in the art, such as a test for their ability to inhibit the activity of human plasma Syk. […] The IC50 value is the concentration (in nM) of the compound required to provide 50% inhibition of human Syk proteolytic activity.\nAn in vitro assay for detecting and measuring inhibition activity against Syk is as follows:\nSYK tyrosine phosphorylation activity is measured using the LANCE™ Technology developed by Perkin Elmer Life and Analytical Sciences (Boston, Mass.). LANCE™ refers to homogeneous time resolved fluorometry applications using techniques such as time-resolved fluorescence resonance energy transfer assay (TR-FRET) (see generally for procedures in Perkin Elmer Application Note—How to Optimize a Tyrosine Kinase Assay Using Time Resolved Fluorescence-Based LANCE Detection, wwww.perkinelmer.com/lifesciences). The assay principle involves detection of a phosphorylated substrate using energy transfer from a phosphospecific europium-labeled antibody to streptavidin-allophycocyanin as an acceptor.\nMolecules are reconstituted in 30% DMSO and serially diluted 1:3 with the final dilution containing DMSO in the absence of the candidate molecule. The final DMSO concentration in the assay is 3%. Kinase assays are performed as a two part reaction. The first reaction is a kinase reaction and which comprises of a candidate molecule, full length active recombinant SYK enzyme (Millipore, CA) and biotin-labeled SYK-specific substrate biotin-DEEDYESP-OH. The second reaction involves termination of the kinase reaction and the simultaneous addition of the detection reagents-europium-labeled anti-phosphotyrosine reagent (Eu-W1024-PY100, Perkin Elmer, Boston, Mass.) and Streptavidin-Allophycocyanin detection reagent (SA-APC, Prozyme, CA). The kinase reaction is performed in a black U-bottom 96-well microtitre plate. The final reaction volume is 50 μL and contains a final concentration of 1 nM active SYK enzyme, 550 nM SYK-substrate, and 100 μM ATP diluted in a buffer containing 50 mM Tris pH 7.5, 5 mM MgCl2, and 1 mM DTT. The reaction is allowed to proceed for 1 hour at room temperature. The quench buffer contains 100 mM Tris pH 7.5, 300 mM NaCl2, 20 mM EDTA, 0.02% Brij35, and 0.5% BSA. The detection reagents are added to the reaction mixture at the following dilutions-1:500 for Eu-W1024-PY100 and 1:250 for SA-APC. The kinase reaction is terminated by the addition of 50 μL quench buffer containing the detection reagents. The detection is allowed to proceed for 1 hr at room temperature. Detection of the phosphorlated substrate in the absence and presence of inhibitors is measured in the TR-FRET instrument, Analyst HT (Molecular Probes, Sunnyvale, Calif.) and the condition for measurements are set up using CriterionHost Release 2.0 (Molecular Probes, Sunnyvale, Calif.). The settings used are a follows: excitation 360 nm, emission 665-7.5 nm, beam splitter 350 nm 50/50, flash 100 pulses, delay 60 us, integration 400 us, z-height 2 mm. Inhibition of SYK-tyrosine kinase activity is calculated as the maximum response observed in the presence of inhibitor, compared to that in the absence of inhibitor. IC50s were derived by non-linear regression analysis.", "units": {"IC50": "nM"}}
{"smiles": "NC(=O)c1ncc(N[C@@H]2CCCC[C@@H]2N)cc1Nc1cnn2ccccc12", "note": "[Example 25, 5-((1R,2S)-2-aminocyclohexylamino)-3-(pyrazolo[1,5-a]pyridin-3-ylamino)picolinamide]", "IC50": "100 to 1000"}
{"smiles": "Cc1cc(Nc2cc(N[C@@H]3CCCC[C@@H]3N)cnc2C(N)=O)on1", "note": "[Example 10, 5-((1R,2S)-2-aminocyclohexylamino)-3-(3-methylisoxazol-5-ylamino)picolinamide]", "IC50": "10 to 100"}
{"smiles": "NC(=O)c1ncc(N[C@@H]2CCCC[C@@H]2N)cc1Nc1ccc2cccnc2c1", "note": "[Example 15, 5-((1R,2S)-2-aminocyclohexylamino)-3-(quinolin-7-ylamino)picolinamide]", "IC50": "10 to 100"}
{"smiles": "CC(C)(C)[C@@H](Nc1cnc(C(N)=O)c(Nc2cc(C3CC3)ns2)c1)C(N)=O", "note": "[Example 39, (R)-5-(1-amino-3,3-dimethyl-1-oxobutan-2-ylamino)-3-(3-cyclopropylisothiazol-5-ylamino)picolinamide]", "IC50": "10 to 100"}
{"smiles": "NC(=O)c1ncc(N[C@@H]2CCCC(F)(F)[C@@H]2N)cc1Nc1cc(-c2ccccc2)no1", "note": "[Example 9, 5-((1R,2R)-2-amino-3,3-difluorocyclohexylamino)-3-(3-phenylisoxazol-5-ylamino)picolinamide]", "IC50": "100 to 1000"}
{"smiles": "NC(=O)c1ncc(N[C@@H]2CCCC[C@@H]2N)cc1Nc1cc(-c2ccncc2)no1", "note": "[Example 49, 5-((1R,2S)-2-aminocyclohexylamino)-3-(3-(pyridin-4-yl)isoxazol-5-ylamino)picolinamide]", "IC50": "1 to 10"}
{"smiles": "NC(=O)c1ncc(N[C@@H]2CCCC[C@@H]2N)cc1Nc1cccc(-n2nccn2)c1", "note": "[Example 6, 3-(3-(2H-1,2,3-triazol-2-yl)phenylamino)-5-((1R,2S)-2-aminocyclohexylamino)picolinamide]", "IC50": "10 to 100"}
{"smiles": "NC(=O)c1ncc(N[C@@H]2CCCC[C@@H]2N)cc1Nc1cnsc1", "note": "[Example 28, 5-((1R,2S)-2-aminocyclohexylamino)-3-(isothiazol-4-ylamino)picolinamide]", "IC50": "100 to 1000"}
{"smiles": "NC(=O)c1ncc(N[C@@H]2CCCC[C@@H]2N)cc1Nc1cncs1", "note": "[Example 56, 5-(((1R,2S)-2-aminocyclohexyl)amino)-3-(thiazol-5-ylamino)picolinamide]", "IC50": "> 1000"}
{"smiles": "NC(=O)c1ncc(N[C@H](CC(F)(F)F)C(N)=O)cc1Nc1ccc2cccnc2c1", "note": "[Example 51, (R)-5-(1-amino-4,4,4-trifluoro-1-oxobutan-2-ylamino)-3-(quinolin-7-ylamino)picolinamide]", "IC50": "1 to 10"}
{"smiles": "Cc1cc(Nc2cc(N[C@@H]3CCCC[C@@H]3N)cnc2C(N)=O)sn1", "note": "[Example 4, 5-((1R,2S)-2-aminocyclohexylamino)-3-(3-methylisothiazol-5-ylamino)picolinamide]", "IC50": "1 to 10"}
{"smiles": "CC[C@@H](Nc1cnc(C(N)=O)c(Nc2cnc3cccnc3c2)c1)C(N)=O", "note": "[Example 54, (R)-3-(1,5-naphthyridin-3-ylamino)-5-(1-amino-1-oxobutan-2-ylamino)picolinamide]", "IC50": "100 to 1000"}
{"smiles": "COC[C@@H](Nc1cnc(C(N)=O)c(Nc2cc(C)ns2)c1)C(N)=O", "note": "[Example 48, (R)-5-(1-amino-3-methoxy-1-oxopropan-2-ylamino)-3-(3-methylisothiazol-5-ylamino)picolinamide]", "IC50": "10 to 100"}
{"smiles": "Cc1cc(Nc2cc(N[C@H](C)C(N)=O)cnc2C(N)=O)sn1", "note": "[Example 43, (R)-5-(1-amino-1-oxopropan-2-ylamino)-3-(3-methylisothiazol-5-ylamino)picolinamide]", "IC50": "10 to 100"}
{"smiles": "CC(C)C[C@@H](Nc1cnc(C(N)=O)c(Nc2ccc3ncccc3c2)c1)C(N)=O", "note": "[Example 16, (R)-5-(1-amino-4-methyl-1-oxopentan-2-ylamino)-3-(quinolin-6-ylamino)picolinamide]", "IC50": "10 to 100"}
{"smiles": "NC(=O)c1ncc(N[C@@H]2CCOC[C@@H]2N)cc1Nc1cc(-c2cccnc2)no1", "note": "[Example 53, 5-((3R,4R)-3-aminotetrahydro-2H-pyran-4-ylamino)-3-(3-(pyridin-3-yl)isoxazol-5-ylamino)picolinamide]", "IC50": "10 to 100"}
{"smiles": "CCc1cc(Nc2cc(N[C@@H]3CCCC[C@@H]3N)cnc2C(N)=O)on1", "note": "[Example 37, 5-((1R,2S)-2-aminocyclohexylamino)-3-(3-ethylisoxazol-5-ylamino)picolinamide]", "IC50": "10 to 100"}
{"smiles": "Cc1cc(Nc2cc(N[C@H](CC3CCCCC3)C(N)=O)cnc2C(N)=O)sn1", "note": "[Example 18, (R)-5-(1-amino-3-cyclohexyl-1-oxopropan-2-ylamino)-3-(3-methylisothiazol-5-ylamino)picolinamide]", "IC50": "10 to 100"}
{"smiles": "Cc1cc(Nc2cc(N[C@@H](C(N)=O)c3ccccc3)cnc2C(N)=O)sn1", "note": "[Example 42, (R)-5-(2-amino-2-oxo-1-phenylethylamino)-3-(3-methylisothiazol-5-ylamino)picolinamide]", "IC50": "10 to 100"}
{"smiles": "Cn1cc(Nc2cc(N[C@@H]3CCCC[C@@H]3N)cnc2C(N)=O)cn1", "note": "[Example 24, 5-((1R,2S)-2-aminocyclohexylamino)-3-(1-methyl-1H-pyrazol-4-ylamino)picolinamide]", "IC50": "100 to 1000"}
{"smiles": "NC(=O)c1ncc(N[C@@H]2CCCC[C@@H]2N)cc1Nc1cnc2ccccc2c1", "note": "[Example 13, 5-((1R,2S)-2-aminocyclohexylamino)-3-(quinolin-3-ylamino)picolinamide]", "IC50": "100 to 1000"}
{"smiles": "CC(C)C[C@@H](Nc1cnc(C(N)=O)c(Nc2nc(-c3ccccc3)no2)c1)C(N)=O", "note": "[Example 30, (R)-5-((1-amino-4-methyl-1-oxopentan-2-yl)amino)-3-((3-phenyl-1,2,4-oxadiazol-5-yl)amino)picolinamide]", "IC50": "10 to 100"}
{"smiles": "NC(=O)c1ncc(N[C@@H]2CCCC[C@@H]2N)cc1Nc1ccc2ccncc2c1", "note": "[Example 14, 5-((1R,2S)-2-aminocyclohexylamino)-3-(isoquinolin-7-ylamino)picolinamide]", "IC50": "10 to 100"}
{"smiles": "Cc1cc(Nc2cc(N[C@H](CC(F)(F)F)C(N)=O)cnc2C(N)=O)sn1", "note": "[Example 44, (R)-5-(1-amino-4,4,4-trifluoro-1-oxobutan-2-ylamino)-3-(3-methylisothiazol-5-ylamino)picolinamide]", "IC50": "< 1"}
{"smiles": "Cc1cc(Nc2cc(N[C@@H]3CCCC(F)(F)[C@@H]3N)cnc2C(N)=O)sn1", "note": "[Example 2, 5-((1R,2R)-2-amino-3,3-difluorocyclohexylamino)-3-(3-methylisothiazol-5-ylamino)picolinamide]", "IC50": "10 to 100"}
{"smiles": "NC(=O)c1ncc(N[C@@H]2CCOC[C@@H]2N)cc1Nc1cc(-c2ccncc2)no1", "note": "[Example 52, 5-((3R,4R)-3-aminotetrahydro-2H-pyran-4-ylamino)-3-(3-(pyridin-4-yl)isoxazol-5-ylamino)picolinamide]", "IC50": "10 to 100"}
{"smiles": "CC(C)c1cc(Nc2cc(N[C@@H]3CCCC[C@@H]3N)cnc2C(N)=O)on1", "note": "[Example 36, 5-((1R,2S)-2-aminocyclohexylamino)-3-(3-isopropylisoxazol-5-ylamino)picolinamide]", "IC50": "10 to 100"}
{"smiles": "CC(C)[C@@H](Nc1cnc(C(N)=O)c(Nc2cc(C3CC3)no2)c1)C(N)=O", "note": "[Example 35, (R)-5-(1-amino-3-methyl-1-oxobutan-2-ylamino)-3-(3-cyclopropylisoxazol-5-ylamino)picolinamide]", "IC50": "10 to 100"}
{"smiles": "Cc1nsc(Nc2cc(N[C@H](CC3CC3)C(N)=O)cnc2C(N)=O)c1I", "note": "[Example 31, (R)-5-((1-amino-3-cyclopropyl-1-oxopropan-2-yl)amino)-3-((4-iodo-3-methylisothiazol-5-yl)amino)picolinamide]", "IC50": "100 to 1000"}
{"smiles": "CCc1cc(Nc2cc(N[C@@H](C(N)=O)C(C)C)cnc2C(N)=O)sn1", "note": "[Example 33, (R)-5-(1-amino-3-methyl-1-oxobutan-2-ylamino)-3-(3-ethylisothiazol-5-ylamino)picolinamide]", "IC50": "10 to 100"}
{"smiles": "Cc1cc(Nc2cc(N[C@@H](C(N)=O)C(C)C)cnc2C(N)=O)sn1", "note": "[Example 7, (R)-5-(1-amino-3-methyl-1-oxobutan-2-ylamino)-3-(3-methylisothiazol-5-ylamino)picolinamide]", "IC50": "10 to 100"}
